Measurements: patent US12016834B2, “Small molecule inhibitors of SLC25A1” (GEORGETOWN UNIVERSITY, priority 2017, dated 2024)

Key:
H1299 cells = experiment: Sphere forming / self-renewal assay; assay type: cell-based, human; conditions: one week after treatment; BTA 2 mM, CTPI 1 mM (FIG. 9F)
Procedure: Growth of monolayers and sphere cultures. Tumor cell lines were grown as monolayers in complete Dulbecco's Modified Eagle's Media (DMEM, Gibco; supplemented with 10% fetal bovine serum and 1% of 5,000 units/mL of penicillin-streptomycin (pen-strep), Gibco). To generate spheroids, cells were grown in Falcon bacteriological petri dishes coated with 2% poly(2-hydroxyethyl methacrylate) dissolved in 100% ethanol. The growth media was DMEM/F12 (Gibco) supplemented with 20 ng/mL of epidermal growth factor (EGF), 5 ng/mL of fibroblast growth factor, 0.375% 100× N2 supplements (Gibco), and 1% pen-strep. Monolayer cells were dissociated using 0.25% trypsin-edta (Gibco), whereas spheroid cultures were dissociated using StemPro Accutase (Gibco). Patient derived cell lines were grown as described below in the primary lung cultures section.
Self-renewal assays. Tumor cells cultured as spheroids were dissociated and diluted in 2× sphere media containing 1% methyl cellulose, which was previously dissolved in cold DMEM/F12 media. Either 200, 500, or 1000 cells were then plated in each 96 well and were incubated in the presence or absence of drugs, as indicated. The spheres were allowed to form for a period of a week to ten days, at which point they were counted. Six biological replicates were used for quantification of the results.

SLC25A1 = SLC25A1 (Homo sapiens, UniProt P53007); conditions: cited from earlier work
SLC25A1, sequence (P53007 14-311, species assumed): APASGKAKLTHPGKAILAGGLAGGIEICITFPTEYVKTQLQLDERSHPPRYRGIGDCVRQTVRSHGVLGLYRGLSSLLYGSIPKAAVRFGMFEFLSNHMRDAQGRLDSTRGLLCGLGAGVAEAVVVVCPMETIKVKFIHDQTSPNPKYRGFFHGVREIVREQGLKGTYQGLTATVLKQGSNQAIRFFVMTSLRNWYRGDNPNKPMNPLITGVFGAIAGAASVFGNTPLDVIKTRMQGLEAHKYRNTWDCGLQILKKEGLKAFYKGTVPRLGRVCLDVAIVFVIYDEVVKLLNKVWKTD

O=C(O)c1cccc(C(=O)O)c1C(=O)O [BTA, 1,2,3, Benzenetricarboxylic acid]
sphere forming capacity (H1299 cells): reduced sphere forming capacity | concentration required for inhibition of SLC25A1 (SLC25A1): millimolar concentration
